# Values of other authors, collected in patent US20100240621A1, “TOPICAL PHARMACEUTICAL COMPOSITION FOR THE COMBINATION OF FUSIDIC ACID AND A CORTICOSTEROID” (priority 2007, published 2010).
# How the values were obtained:
# [1] = solution, cream, and ointment formulations
# [2] = in vivo
# [3] = tested on: oxacillin-resistant staphylococcus aureus; conditions: at a concentration of 2 mg/L
# [4] = tested on: oxacillin-sensitive staphylococcus aureus; conditions: at a concentration of 0.12 mg/L
# [5] = tested on: staphylococcus epidermidis; conditions: at 4 mg/L
Compound,potency class by vasoconstrictor assay [1],applied dose entering the circulation [2],oxacillin-resistant staphylococcus aureus inhibited [3],oxacillin-sensitive staphylococcus aureus inhibited [4],staphylococcus epidermidis inhibited [5],concentration at which 90% of organisms inhibited (Peptococcus species),concentration at which 90% of organisms inhibited (Clostridium species),concentration at which 90% of organisms inhibited (Propionibacterium Danes),concentration at which 90% of organisms inhibited (most Bacteroides species)
CCC(=O)O[C@]1(C(=O)CCl)[C@@H](C)C[C@H]2[C@@H]3C[C@H](F)C4=CC(=O)C=C[C@]4(C)[C@@]3(F)[C@@H](O)C[C@@]21C [Halobetasol propionate],super high-potency,less than 6%,,,,,,,
CC(=O)O[C@H]1C[C@@]2(C)[C@@H](C[C@@H](O)[C@H]3[C@@]4(C)CC[C@@H](O)[C@@H](C)[C@@H]4CC[C@@]32C)/C1=C(\CCC=C(C)C)C(=O)O [Fusidic acid],,,At least 99%,100%,99%,≤ 2 mg/L,≤ 2 mg/L,≤ 2 mg/L,≤ 2 mg/L
